# Test system: 947758-054-R-J2-PDC spheroid growth, percent test/control
# Assay: Anticancer human tumor 947758-054-R-J2-PDC patient-derived colon adenocarcinoma cell line growth inhibition [CLK]
# Settings: spheroids with HUVEC and MSC; for IC50: curve of first compound; for viability, T/C: stronger effect = lower value
# In short: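 Patient-derived tumor cells grown as complex spheroids with HUVEC endothelial cells and mesenchymal stem cells, treated with drug combinations. Concentrations descend in half-log steps from near clinical Cmax, or from 10 microM if Cmax unknown.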
# [1] = second compound 0.0316 µM, first compound 0.0316 µM
# [2] = second compound 0.0316 µM, first compound 0.1 µM
# [3] = second compound 0.0316 µM, first compound 0.316 µM
# [4] = second compound 0.0316 µM, first compound 1 µM
# [5] = second compound 0.0316 µM, first compound 3.16 µM
# [6] = second compound 0.0316 µM, first compound 10 µM
# [7] = second compound 0.1 µM, first compound 0.0316 µM
# [8] = second compound 0.1 µM, first compound 0.1 µM
# [9] = second compound 0.1 µM, first compound 0.316 µM
# [10] = second compound 0.1 µM, first compound 1 µM
# [11] = second compound 0.1 µM, first compound 3.16 µM
# [12] = second compound 0.1 µM, first compound 10 µM
# [13] = second compound 0.316 µM, first compound 0.0316 µM
# [14] = second compound 0.316 µM, first compound 0.1 µM
# [15] = second compound 0.316 µM, first compound 0.316 µM
# [16] = second compound 0.316 µM, first compound 1 µM
# [17] = second compound 0.316 µM, first compound 3.16 µM
# [18] = second compound 0.316 µM, first compound 10 µM
# [19] = second compound 1 µM, first compound 0.0316 µM
# [20] = second compound 1 µM, first compound 0.1 µM
# [21] = second compound 1 µM, first compound 0.316 µM
# [22] = second compound 1 µM, first compound 1 µM
# [23] = second compound 1 µM, first compound 3.16 µM
# [24] = second compound 1 µM, first compound 10 µM
# [25] = second compound 3.16 µM, first compound 0.0316 µM
# [26] = second compound 3.16 µM, first compound 0.1 µM
# [27] = second compound 3.16 µM, first compound 0.316 µM
# [28] = second compound 3.16 µM, first compound 1 µM
# [29] = second compound 3.16 µM, first compound 3.16 µM
# [30] = second compound 3.16 µM, first compound 10 µM
# [31] = second compound 10 µM, first compound 0.0316 µM
# [32] = second compound 10 µM, first compound 0.1 µM
# [33] = second compound 10 µM, first compound 0.316 µM
# [34] = second compound 10 µM, first compound 1 µM
# [35] = second compound 10 µM, first compound 3.16 µM
# [36] = second compound 10 µM, first compound 10 µM
# 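Further: spheroids exposed to compounds for one week before readout.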
# 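Wherever viability, T/C is given: 100% = DMSO vehicle control wells.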
compound,measurement,setting,value
CC(=O)O[C@H]1C(=O)[C@@]2(C)[C@H]([C@H](OC(=O)c3ccccc3)[C@]3(O)C[C@H](OC(=O)[C@H](O)[C@@H](NC(=O)c4ccccc4)c4ccccc4)C(C)=C1C3(C)C)[C@]1(OC(C)=O)CO[C@@H]1C[C@@H]2O + CN1CCN(c2cc(C(=O)Nc3cc4cc(-c5cnn(C)c5)ccc4cn3)ccn2)CC1,IC50,second compound 0.0316 µM,< 31.6 nM
same,IC50,second compound 0.1 µM,< 31.6 nM
same,IC50,second compound 0.316 µM,< 31.6 nM
same,IC50,second compound 1 µM,< 31.6 nM
same,IC50,second compound 3.16 µM,< 31.6 nM
same,IC50,second compound 10 µM,< 31.6 nM
same,"viability, T/C",[1],7.4%
same,"viability, T/C",[2],6.03%
same,"viability, T/C",[3],4.94%
same,"viability, T/C",[4],5.77%
same,"viability, T/C",[5],6.99%
same,"viability, T/C",[6],11.8%
same,"viability, T/C",[7],5.33%
same,"viability, T/C",[8],5.11%
same,"viability, T/C",[9],4.6%
same,"viability, T/C",[10],4.61%
same,"viability, T/C",[11],5.41%
same,"viability, T/C",[12],8.84%
same,"viability, T/C",[13],1.4%
same,"viability, T/C",[14],1.86%
same,"viability, T/C",[15],2.27%
same,"viability, T/C",[16],1.92%
same,"viability, T/C",[17],2.04%
same,"viability, T/C",[18],2.67%
same,"viability, T/C",[19],0.1%
same,"viability, T/C",[20],0.12%
same,"viability, T/C",[21],0.3%
same,"viability, T/C",[22],0.08%
same,"viability, T/C",[23],0.09%
same,"viability, T/C",[24],0.09%
same,"viability, T/C",[25],0.16%
same,"viability, T/C",[26],0.22%
same,"viability, T/C",[27],0.21%
same,"viability, T/C",[28],0.14%
same,"viability, T/C",[29],1.02%
same,"viability, T/C",[30],0.58%
same,"viability, T/C",[31],1.41%
same,"viability, T/C",[32],0.29%
same,"viability, T/C",[33],0.23%
same,"viability, T/C",[34],0.25%
same,"viability, T/C",[35],0.27%
same,"viability, T/C",[36],0.7%
CCc1c2c(nc3ccc(O)cc13)-c1cc3c(c(=O)n1C2)COC(=O)[C@]3(O)CC + CN1CCN(c2cc(C(=O)Nc3cc4cc(-c5cnn(C)c5)ccc4cn3)ccn2)CC1,IC50,second compound 0.0316 µM,7.83 nM
same,IC50,second compound 0.1 µM,3.27 nM
same,IC50,second compound 0.316 µM,< 3.16 nM
same,IC50,second compound 1 µM,< 3.16 nM
same,IC50,second compound 3.16 µM,< 3.16 nM
same,IC50,second compound 10 µM,< 3.16 nM
same,"viability, T/C","second compound 0.0316 µM, first compound 0.00316 µM",98.9%
same,"viability, T/C","second compound 0.0316 µM, first compound 0.01 µM",32.5%
same,"viability, T/C",[1],22.7%
same,"viability, T/C",[2],16.4%
same,"viability, T/C",[3],6.6%
same,"viability, T/C",[4],3.27%
same,"viability, T/C","second compound 0.1 µM, first compound 0.00316 µM",51%
same,"viability, T/C","second compound 0.1 µM, first compound 0.01 µM",29.2%
same,"viability, T/C",[7],19.8%
same,"viability, T/C",[8],9.54%
same,"viability, T/C",[9],3.86%
same,"viability, T/C",[10],2.52%
same,"viability, T/C","second compound 0.316 µM, first compound 0.00316 µM",1.89%
same,"viability, T/C","second compound 0.316 µM, first compound 0.01 µM",2.41%
same,"viability, T/C",[13],1.16%
same,"viability, T/C",[14],1.27%
same,"viability, T/C",[15],0.15%
same,"viability, T/C",[16],0.45%
same,"viability, T/C","second compound 1 µM, first compound 0.00316 µM",0.1%
same,"viability, T/C","second compound 1 µM, first compound 0.01 µM",0.11%
same,"viability, T/C",[19],0.12%
same,"viability, T/C",[20],0.09%
same,"viability, T/C",[21],1.68%
same,"viability, T/C",[22],0.14%
same,"viability, T/C","second compound 3.16 µM, first compound 0.00316 µM",0.18%
same,"viability, T/C","second compound 3.16 µM, first compound 0.01 µM",0.26%
same,"viability, T/C",[25],0.41%
same,"viability, T/C",[26],0.63%
same,"viability, T/C",[27],0.68%
same,"viability, T/C",[28],1.64%
same,"viability, T/C","second compound 10 µM, first compound 0.00316 µM",0.21%
same,"viability, T/C","second compound 10 µM, first compound 0.01 µM",0.3%
same,"viability, T/C",[31],0.79%
same,"viability, T/C",[32],1.24%
same,"viability, T/C",[33],1.43%
same,"viability, T/C",[34],1.35%
COc1ccc([C@@H](O)c2cc(-c3ncnc4cc(N5CCOCC5)ccc34)c(F)cc2Cl)nn1 + CN1CCN(c2cc(C(=O)Nc3cc4cc(-c5cnn(C)c5)ccc4cn3)ccn2)CC1,IC50,second compound 0.0316 µM,> 10000 nM
same,IC50,second compound 0.1 µM,4240 nM
same,IC50,second compound 0.316 µM,< 31.6 nM
same,IC50,second compound 1 µM,< 31.6 nM
same,IC50,second compound 3.16 µM,< 31.6 nM
same,IC50,second compound 10 µM,< 31.6 nM
same,"viability, T/C",[1],126%
same,"viability, T/C",[2],134%
same,"viability, T/C",[3],157%
same,"viability, T/C",[4],163%
same,"viability, T/C",[5],165%
same,"viability, T/C",[6],64%
same,"viability, T/C",[7],119%
same,"viability, T/C",[8],137%
same,"viability, T/C",[9],111%
same,"viability, T/C",[10],92.1%
same,"viability, T/C",[11],59.8%
same,"viability, T/C",[12],25.2%
same,"viability, T/C",[13],1.95%
same,"viability, T/C",[14],5%
same,"viability, T/C",[15],1.88%
same,"viability, T/C",[16],2.42%
same,"viability, T/C",[17],2.05%
same,"viability, T/C",[18],1.12%
same,"viability, T/C",[19],0.11%
same,"viability, T/C",[20],1.62%
same,"viability, T/C",[21],0.17%
same,"viability, T/C",[22],0.08%
same,"viability, T/C",[23],1.67%
same,"viability, T/C",[24],0.46%
same,"viability, T/C",[25],0.13%
same,"viability, T/C",[26],1.34%
same,"viability, T/C",[27],0.63%
same,"viability, T/C",[28],0.14%
same,"viability, T/C",[29],0.18%
same,"viability, T/C",[30],0.3%
same,"viability, T/C",[31],0.26%
same,"viability, T/C",[32],0.42%
same,"viability, T/C",[33],0.26%
same,"viability, T/C",[34],0.21%
same,"viability, T/C",[35],0.3%
same,"viability, T/C",[36],0.88%
COc1cccc2c1C(=O)c1c(O)c3c(c(O)c1C2=O)CC(O)(C(=O)CO)CC3OC1CC(N)C(O)C(C)O1 (stereo not drawn) + CN1CCN(c2cc(C(=O)Nc3cc4cc(-c5cnn(C)c5)ccc4cn3)ccn2)CC1,IC50,second compound 0.0316 µM,91.3 nM
same,IC50,second compound 0.1 µM,< 31.6 nM
same,IC50,second compound 0.316 µM,< 31.6 nM
same,IC50,second compound 1 µM,< 31.6 nM
same,IC50,second compound 3.16 µM,< 31.6 nM
same,IC50,second compound 10 µM,< 31.6 nM
same,"viability, T/C",[1],100%
same,"viability, T/C",[2],38.9%
same,"viability, T/C",[3],33.2%
same,"viability, T/C",[4],4.76%
same,"viability, T/C",[5],0.5%
same,"viability, T/C",[6],4.61%
same,"viability, T/C",[7],44.3%
same,"viability, T/C",[8],35.4%
same,"viability, T/C",[9],21.1%
same,"viability, T/C",[10],1.67%
same,"viability, T/C",[11],0.35%
same,"viability, T/C",[12],7.75%
same,"viability, T/C",[13],1.3%
same,"viability, T/C",[14],1.49%
same,"viability, T/C",[15],0.27%
same,"viability, T/C",[16],0.21%
same,"viability, T/C",[17],1.68%
same,"viability, T/C",[18],8.73%
same,"viability, T/C",[19],0.12%
same,"viability, T/C",[20],1.01%
same,"viability, T/C",[21],0.13%
same,"viability, T/C",[22],0.11%
same,"viability, T/C",[23],2.81%
same,"viability, T/C",[24],6.86%
same,"viability, T/C",[25],0.14%
same,"viability, T/C",[26],0.96%
same,"viability, T/C",[27],1.03%
same,"viability, T/C",[28],0.15%
same,"viability, T/C",[29],0.83%
same,"viability, T/C",[30],7.28%
same,"viability, T/C",[31],0.46%
same,"viability, T/C",[32],1.26%
same,"viability, T/C",[33],0.8%
same,"viability, T/C",[34],0.22%
same,"viability, T/C",[35],2.33%
same,"viability, T/C",[36],7.23%
